# Where two headings read alike, the source gives them in different places.
# Key:
# [1] = Procedure: A number of experiments were performed to map out the relative stability of Forms I to V. Prior to the relative stability tests, the solids of Forms I, II and III were dried in the oven to remove surface water.
# [2] = 37° C.; for water solubility: hydrochloride
# From the text: Hydrocodone benzoic acid enol ester HCl exists in at least 6 distinct solid forms, designated herein as Forms I-V and amorphous. FIG. 1 is a scheme that depicts the general processes for converting hydrocodone benzoic acid enol ester HCl between its polymorphic forms I-V. Each polymorph has different characteristics, including solubility and stability.
# [3] = RH>90% at room temperature; hydrochloride
structure (smiles),measurement,setting,value
"COc1ccc2c3c1O[C@H]1C(OC(=O)c4ccccc4)=CC[C@@H]4[C@@H](C2)N(C)CC[C@@]341.Cl [I + II + III, hydrocodone benzoic acid enol ester hydrochloride]",Form after 1 day slurry,"[1]; solvent Acetonitrile, 25° C.",I + traces of II
same,Form after 1 day slurry,"[1]; solvent IPA, 25° C.",I + II
same,Form after 1 day slurry,"[1]; solvent IPA, 50° C.",I + II
"COc1ccc2c3c1O[C@H]1C(OC(=O)c4ccccc4)=CC[C@@H]4[C@@H](C2)N(C)CC[C@@]341.Cl [Form I, hydrocodone benzoic acid enol ester hydrochloride]",water solubility,[2],about 24 mg/mL
same,stability under high humidity,[3],stable for at least two weeks
same,relative stability of forms in slurry,[1]; in water or organic solvents that contain water,always the most stable
"COc1ccc2c3c1O[C@H]1C(OC(=O)c4ccccc4)=CC[C@@H]4[C@@H](C2)N(C)CC[C@@]341.Cl [Form III, hydrocodone benzoic acid enol ester hydrochloride]",stability under high humidity,[3],"hygroscopic and unstable, and converted to Form V"
"COc1ccc2c3c1O[C@H]1C(OC(=O)c4ccccc4)=CC[C@@H]4[C@@H](C2)N(C)CC[C@@]341.Cl [Form II, hydrocodone benzoic acid enol ester hydrochloride]",water solubility,[2],> 200 mg/mL
same,water solubility relative to Form I,[2]; times higher than the solubility of Form I,9 times
same,stability under high humidity,[3],"hygroscopic and unstable, and converted to Form IV"
same,relative stability of forms in slurry,"[1]; in anhydrous organic solvents, especially at higher temperatures",the more stable one

# — patent US10870654B2, “Pharmaceutically acceptable salts and polymorphic forms of hydrocodone benzoic acid enol ester and processes for making same” (KemPharm, Inc., priority 2013, dated 2020)
